# Results published in patent US20100267743A1, “3-(PHENOXYPYRROLIDIN-3-YL-METHYL)HETEROARYL, 3-(PHENYLPYRROLIDIN-3-YLMETHOXY)HETEROARYL, AND 3-(HETEROARYLPYRROLIDIN-3-YLMETHOXY)HETEROARYL COMPOUNDS” (priority 2009, published 2010).
# Columns and labels:
# NET = NET (Homo sapiens, UniProt P23975); assay: hNET radioligand binding assay (3H-nisoxetine); parameters: expressed in transfected cells; host or cells: HEK-293; conditions: hNET membranes (HEK-293), 1.0 nM 3H-nisoxetine; for Ki: read-out: NET pKi (converted)
# Sequence of NET (P23975 whole entry): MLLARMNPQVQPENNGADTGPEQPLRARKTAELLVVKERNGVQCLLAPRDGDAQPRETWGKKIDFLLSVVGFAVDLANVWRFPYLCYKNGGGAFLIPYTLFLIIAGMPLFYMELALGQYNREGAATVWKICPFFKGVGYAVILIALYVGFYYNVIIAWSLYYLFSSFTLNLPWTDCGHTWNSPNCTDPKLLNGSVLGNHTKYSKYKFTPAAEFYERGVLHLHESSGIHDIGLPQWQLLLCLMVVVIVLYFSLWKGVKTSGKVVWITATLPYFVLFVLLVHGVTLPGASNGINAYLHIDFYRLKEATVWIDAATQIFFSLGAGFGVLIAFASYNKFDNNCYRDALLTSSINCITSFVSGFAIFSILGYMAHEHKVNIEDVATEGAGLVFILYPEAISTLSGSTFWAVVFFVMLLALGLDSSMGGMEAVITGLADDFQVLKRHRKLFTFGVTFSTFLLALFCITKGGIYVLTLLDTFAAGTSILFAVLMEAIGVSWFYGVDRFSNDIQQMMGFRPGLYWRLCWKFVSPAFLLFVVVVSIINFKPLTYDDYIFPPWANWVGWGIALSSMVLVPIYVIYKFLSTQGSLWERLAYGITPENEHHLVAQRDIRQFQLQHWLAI
# Method: (§1) Membrane radioligand binding assays were used to measure inhibition of labeled ligand (^3H-citalopram or ^3H-nisoxetine or ^3H-WIN35428) binding to membranes prepared from cells expressing the respective human recombinant transporter (hSERT or hNET or hDAT) in order to determine the pKi values of test compounds at the transporters.
# (§2) Recombinant human embryonic kidney (HEK-293) derived cell lines stably transfected with hSERT or hNET, respectively, were grown in DMEM medium supplemented with 10% dialyzed FBS (for hSERT) or FBS (for hNET), 100 μg/ml penicillin, 100 μg/ml streptomycin, 2 mM L-glutamine and 250 μg/ml of the aminoglycoside antibiotic G418, in a 5% CO2 humidified incubator at 37° C. When cultures reached 80% confluence, the cells were washed thoroughly in PBS (without […] and Mg^2+) and lifted with 5 mM EDTA in PBS. Cells were pelleted by centrifugation, resuspended in lysis buffer (10 mM Tris-HCl, pH7.5 containing 1 mM EDTA), homogenized, pelleted by centrifugation, then resuspended in 50 mM Tris-HCl, pH 7.5 and 10% sucrose at 4° C. Protein concentration of the membrane suspension was determined using a Bio-Rad Bradford Protein Assay kit. Membranes were snap frozen and stored at −80° C. Chinese hamster ovary membranes expressing hDAT (CHO-DAT) were purchased from PerkinElmer and stored at −80° C.
# (§3) Binding assays were performed in a 96-well assay plate in a total volume of 200 μl assay buffer (50 mM Tris-HCl, 120 mM NaCl, 5 mM KCl, pH 7.4) with 0.5, 1, and 3 μg membrane protein, for SERT, NET and DAT, respectively.
# (§4) Stock solutions (10 mM in DMSO) of test compound were prepared and serial dilutions made using Dilution Buffer (50 mM Tris-HCl, 120 mM NaCl, 5 mM KCl, pH 7.4, 0.1% BSA, 400 μM ascorbic acid).
# (§5) Following a 60 minute incubation at 22° C. (or a period sufficient to reach equilibrium), the membranes were harvested by rapid filtration over a 96-well UniFilter GF/B plate, pretreated with 0.3% polyethyleneimine, and washed 6 times with 300 μl wash buffer (50 mM Tris-HCl, 0.9% NaCl, pH 7.5 at 4° C.). Plates were dried overnight at room temperature, ˜45 μl of MicroScint™-20 (Perkin Elmer) added and bound radioactivity quantitated via liquid scintillation spectroscopy. Inhibition curves and saturation isotherms were analyzed using GraphPad Prism Software package (GraphPad Software, Inc., San Diego, Calif.). IC50 values were generated from concentration response curves using the Sigmoidal Dose Response (variable slope) algorithm in Prism GraphPad. Kd and Bmax values for the radioligand were generated from saturation isotherms using the Saturation Binding Global Fit algorithm in Prism GraphPad. pKi (negative decadic logarithm of Ki) values for test compounds were calculated from the best-fit IC50 values, and the Kd value of the radioligand, using the Cheng-Prusoff equation (Cheng & Prusoff (1973) Biochem. Pharmacol. 22(23):3099-3108): Ki=IC50/(1+[L]/Kd), where [L]=concentration radioligand.
# SERT = SERT (Homo sapiens, UniProt P31645); assay: hSERT radioligand binding assay (3H-citalopram); parameters: expressed in transfected cells; host or cells: HEK-293; conditions: hSERT membranes (HEK-293), 1.0 nM 3H-citalopram; for Ki: read-out: SERT pKi (converted)
# Sequence of SERT (P31645 whole entry): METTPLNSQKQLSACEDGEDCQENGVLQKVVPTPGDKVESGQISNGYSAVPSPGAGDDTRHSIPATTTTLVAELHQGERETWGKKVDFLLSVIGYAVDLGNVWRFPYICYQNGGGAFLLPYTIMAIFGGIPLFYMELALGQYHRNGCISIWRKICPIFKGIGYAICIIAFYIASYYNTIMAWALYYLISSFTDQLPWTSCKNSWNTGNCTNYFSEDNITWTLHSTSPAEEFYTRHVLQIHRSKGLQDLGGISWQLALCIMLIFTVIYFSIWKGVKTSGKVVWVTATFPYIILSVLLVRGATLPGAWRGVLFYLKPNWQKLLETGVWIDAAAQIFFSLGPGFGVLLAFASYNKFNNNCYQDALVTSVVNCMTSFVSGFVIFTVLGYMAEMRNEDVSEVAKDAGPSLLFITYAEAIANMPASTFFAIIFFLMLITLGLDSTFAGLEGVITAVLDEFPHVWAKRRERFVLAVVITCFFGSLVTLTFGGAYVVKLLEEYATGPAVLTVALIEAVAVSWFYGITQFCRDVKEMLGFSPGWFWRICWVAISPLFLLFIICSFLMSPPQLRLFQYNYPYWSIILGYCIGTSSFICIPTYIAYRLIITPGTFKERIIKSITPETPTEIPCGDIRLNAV
# Method: as §1, §2, §3, §4, §5
Ki (NET),Ki (SERT),Compound,NET pKi (NET),SERT pKi (SERT)
≤ 10000 nM,≤ 100 nM,Fc1cc(F)c(Cl)c(O[C@H](c2ncco2)[C@H]2CCNC2)c1Cl [6-10],,
≤ 100 nM,≤ 100 nM,"Clc1cccc(Cl)c1O[C@H](c1ccncc1)[C@H]1CCNC1 [Example 3-5, 4-[(S)-(2,6-Dichlorophenoxy)-(S)-pyrrolidin-3-yl-methyl]pyridine]",,
,,Clc1ccc(O[C@H](c2ccccc2)[C@@H]2CCNC2)cn1.O=C(O)C(F)(F)F [15-23],≧5.0,≧7.0
≤ 100 nM,≤ 100 nM,"Fc1cc(Cl)cc(Cl)c1OC(c1cncc(Cl)c1)C1CCNC1 [Example 2-27, 3-Chloro-5-[(R)-(2,4-dichloro-6-fluorophenoxy)-(S)-pyrrolidin-3-yl-methy1]-pyridine]",,
≤ 100 nM,≤ 100 nM,"Fc1ccc(OC(c2nccs2)[C@H]2CCNC2)c(Cl)c1 (stereo partly drawn) [Example 5-20, 2-[(S)-(2-Chloro-4-fluorophenoxy)-pyrrolidin-3-yl-methyl]thiazole]",,
,,Fc1ccc(F)c(O[C@@H](c2cncnc2)[C@H]2CCNC2)c1Cl.O=C(O)C(F)(F)F [12-1],≧7.0,≧5.0
,,CCc1cc(F)ccc1O[C@@H](c1ncco1)[C@H]1CCNC1.O=C(O)C(F)(F)F [6-30],≧7.0,≧7.0
,,O=C(O)C(F)(F)F.c1ccc(COc2ccccc2O[C@@H](c2ncco2)[C@H]2CCNC2)cc1 [6-36],≧7.0,≧5.0
,,COc1ccccc1O[C@@H](c1ncco1)[C@H]1CCNC1.O=C(O)C(F)(F)F [6-52],≧7.0,≧5.0
,,Cc1cc(Br)cnc1O[C@@H](c1ccccc1)[C@H]1CCNC1.O=C(O)C(F)(F)F [14-21],≧7.0,≧7.0
,,Clc1ccc(OC(c2ncco2)C2CCNC2)c(Cc2ccccc2)c1 (stereo not shown) [6-16],≧7.0,≧7.0
,,Clc1cc(Cl)cc(O[C@@H](c2cncnc2)[C@H]2CCNC2)c1.O=C(O)C(F)(F)F [12-5],≧5.0,≧7.0
,,Cc1c(O[C@@H](c2ccccc2)[C@H]2CCNC2)ccnc1Cl.O=C(O)C(F)(F)F [16-1],≧5.0,≧7.0
≤ 100 nM,≤ 10000 nM,FC(F)(F)Oc1ccccc1O[C@@H](c1ncco1)[C@H]1CCNC1 [6-37],,
,,Clc1cc(O[C@@H](c2ccccc2)[C@H]2CCNC2)cc(Cl)n1.O=C(O)C(F)(F)F [16-2],≧5.0,≧7.0
≤ 10000 nM,≤ 100 nM,"Fc1cncc([C@H](Oc2cc(Cl)c(Cl)cc2Cl)[C@H]2CCNC2)c1 [Example 2-34, 3-Fluoro-5-[(R)-(S)-pyrrolidin-3-yl-(2,4,5-trichlorophenoxy)-methyl]pyridine]",,
,,Clc1ccccc1O[C@@H](c1ncco1)[C@H]1CCNC1 [6-19],≧7.0,≧5.0
,,Fc1cc(O[C@@H](c2ccccc2)[C@H]2CCNC2)ccn1.O=C(O)C(F)(F)F [16-6],≧5.0,≧5.0
,,Cc1ccc(F)c(O[C@H](c2nccs2)C2CCNC2)c1Cl (stereo partly shown) [Example 5-17],≧7.0,≧7.0
,,Cc1cc(Cl)ccc1O[C@@H](c1nccs1)[C@H]1CCNC1 [Example 5-22],≧7.0,≧7.0
,,Fc1cc(Cl)cnc1O[C@@H](c1ccccc1)[C@H]1CCNC1.O=C(O)C(F)(F)F [14-28],≧5.0,≧7.0
,,Fc1cc(Cl)ccc1O[C@H](c1nccs1)[C@H]1CCNC1 [Example 5-33],≧7.0,≧7.0

Ki (NET),Ki (SERT),Compound,NET pKi (NET),SERT pKi (SERT)
≤ 10000 nM,≤ 100 nM,Cc1cc(Cl)ccc1O[C@H](c1ncco1)[C@H]1CCNC1 [6-35],,
≤ 100 nM,≤ 100 nM,"Fc1cncc([C@@H](Oc2cc(Cl)cc(Cl)c2)[C@H]2CCNC2)c1 [Example 2-66, 3-[(S)-(3,5-Dichlorophenoxy)-(S)-pyrrolidin-3-yl-methyl]-5-fluoropyridine]",,
,,"Fc1cc(Cl)c(O[C@H](c2cncc(Cl)c2)[C@@H]2CCNC2)c(Cl)c1 [Example 2-26, 3-Chloro-5-[(R)-(2,6-dichloro-4-fluorophenoxy)-(S)-pyrrolidin-3-yl-methy1]-pyridine]",≧5.0,≧7.0
≤ 10000 nM,≤ 10000 nM,"COc1ccccc1O[C@H](c1cncc(Cl)c1)[C@H]1CCNC1 [Example 2-13, 3-Chloro-5-[(S)-(2-methoxyphenoxy)-(S)-pyrrolidin-3-yl-methyl]pyridine]",,
≤ 10000 nM,≤ 100 nM,Clc1cc(Cl)cc(O[C@H](c2cnccn2)[C@H]2CCNC2)c1 [10-10],,
,,Fc1cccnc1O[C@H](c1ccccc1)[C@@H]1CCNC1.O=C(O)C(F)(F)F [14-35],≧7.0,≧5.0
≤ 10000 nM,≤ 10000 nM,"COc1ccccc1O[C@H](c1cncc(F)c1)[C@H]1CCNC1 [Example 2-63, 3-Fluoro-5-[(S)-(2-methoxyphenoxy)-(S)-pyrrolidin-3-yl-methyl]pyridine]",,
,,Clc1ncccc1O[C@H](c1ccccc1)[C@@H]1CCNC1.O=C(O)C(F)(F)F [15-5],≧7.0,≧7.0
,,FC(F)(F)c1cnc(O[C@@H](c2ccccc2)[C@H]2CCNC2)c(Cl)c1.O=C(O)C(F)(F)F [14-25],≧5.0,≧7.0
,,Fc1cc(F)c(Cl)c(O[C@@H](c2cnccn2)[C@H]2CCNC2)c1Cl.O=C(O)C(F)(F)F [10-1],≧7.0,≧7.0
,,Fc1ccc(O[C@@H](c2ccccc2)[C@H]2CCNC2)nc1F.O=C(O)C(F)(F)F [14-5],≧7.0,≧5.0
≤ 10000 nM,≤ 10000 nM,Fc1ccc(F)c(O[C@H](c2ncco2)[C@H]2CCNC2)c1Cl [6-21],,
,,Clc1ccc(O[C@@H](c2ccccc2)[C@H]2CCNC2)cn1.O=C(O)C(F)(F)F [15-24],≧5.0,≧7.0
,,Clc1cccc(O[C@@H](c2ncco2)[C@H]2CCNC2)c1Cl.O=C(O)C(F)(F)F [6-49],≧7.0,≧7.0
,,Fc1c(Cl)nc(O[C@@H](c2ccccc2)[C@H]2CCNC2)c(F)c1Cl.O=C(O)C(F)(F)F [14-6],≧7.0,≧7.0
,,Cc1cccc(Cl)c1O[C@@H](c1ncco1)[C@H]1CCNC1 [6-26],≧7.0,≧7.0
,,Cc1ncccc1O[C@@H](c1ccccc1)[C@H]1CCNC1.O=C(O)C(F)(F)F [15-9],≧5.0,≧5.0
,,"CCc1cc(F)ccc1O[C@H](c1cncc(F)c1)[C@@H]1CCNC1 [Example 2-58, 3-[(R)-(2-Ethy1-4-fluorophenoxy)-(S)-pyrrolidin-3-yl-methyl]-5-fluoropyridine]",≧7.0,≧7.0
,,COc1ccccc1O[C@@H](c1cnccn1)[C@H]1CCNC1.O=C(O)C(F)(F)F [10-7],≧7.0,≧5.0
≤ 100 nM,≤ 100 nM,Clc1ccc(O[C@@H](c2ccccc2)C2CCNC2)c(Cl)n1 (stereo partly shown) [15-1],,
,,Clc1cnc(OC(c2ccccc2)C2CCNC2)c(Cl)c1 (stereo not shown) [14-14],≧7.0,≧7.0

Compound,Ki (NET),Ki (SERT),NET pKi (NET),SERT pKi (SERT)
"Fc1cc(F)c(OC(c2nccs2)C2CCNC2)c(F)c1 [Example 5-6, 2-[(R)-((S)-Pyrrolidin-3-yl-(2,4,6-trifluorophenoxy)methyl]thiazole]",≤ 10000 nM,≤ 10000 nM,,
